Columns and labels:
Metformin + AZD7762 = compound: CN(C)C(=N)NC(=N)N [Metformin] + NC(=O)Nc1cc(-c2cccc(F)c2)sc1C(=O)N[C@H]1CCCNC1 [AZD7762] (partner 0.2 µM); assay: relative viability (nuclei count vs DMSO), 5 days (fraction); higher = more cells survive
Outline: (§1)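 Lung cancer cell lines, seeded in 1536-well plates, were treated the following day by pin tool with a single drug or with five library-drug doses (not always all listed) in √10 steps on top of a fixed anchor-drug dose. Cells were fixed and nuclei stained in one step after 5 days, and nuclei were counted. Relative viability is the nuclei count for treated wells divided by that for vehicle wells, reported as medians of duplicate plates.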

Metformin + Trametinib = compound: CN(C)C(=N)NC(=N)N [Metformin] + CC(=O)Nc1cccc(-n2c(=O)n(C3CC3)c(=O)c3c(Nc4ccc(I)cc4F)n(C)c(=O)c(C)c32)c1 [Trametinib] (partner 0.02 µM); assay: as above
Outline: as §1

Cell Line | relative viability (Metformin + AZD7762; first compound 10 µM) | relative viability (Metformin + AZD7762; first compound 31.62 µM) | relative viability (Metformin + AZD7762; first compound 100 µM) | relative viability (Metformin + AZD7762; first compound 316.23 µM) | relative viability (Metformin + AZD7762; first compound 1000 µM) | relative viability (Metformin + Trametinib; first compound 10 µM) | relative viability (Metformin + Trametinib; first compound 31.62 µM) | relative viability (Metformin + Trametinib; first compound 100 µM) | relative viability (Metformin + Trametinib; first compound 316.23 µM) | relative viability (Metformin + Trametinib; first compound 1000 µM)
PC-14 | 0.31 | 0.343 | 0.383 | 0.304 | 0.392 | 0.746 | 0.666 | 0.767 | 0.686 | 0.575
HCC-78 |  | 0.99 | 0.946 | 0.846 | 0.917 |  | 1.3 | 1.15 | 1.1 | 0.541
NCI-H322M | 0.569 | 0.641 | 0.649 | 0.464 | 0.566 | 0.518 | 0.487 | 0.506 | 0.561 | 0.529
NCI-H2023 |  |  |  |  |  | 0.5 | 0.563 | 0.516 | 0.415 | 0.467
NCI-H1651 | 0.467 | 0.519 | 0.495 | 0.473 | 0.587 | 0.908 | 0.999 | 1.01 | 0.903 | 1
HCC-15 |  | 1.07 | 1.11 | 1 | 1.27 |  | 0.396 | 0.4 | 0.37 | 0.395
NCI-H3122 | 0.867 | 0.881 | 0.984 | 0.845 | 0.809 | 0.163 | 0.21 | 0.258 | 0.188 | 0.209
LOU-NH91 | 0.743 | 0.668 | 0.716 | 0.681 | 0.718 | 0.732 | 0.76 | 0.786 | 0.766 | 0.761
LXF-289 | 1.05 | 1.02 | 1.01 | 1.05 | 1.07 | 0.645 | 0.658 | 0.641 | 0.602 | 0.602
NCI-H650 | 1.03 | 1.22 | 0.896 | 0.835 | 1.18 | 1.09 | 1 | 1.06 | 0.817 | 0.94
NCI-H1975 | 0.772 | 0.734 | 0.681 | 0.689 | 0.637 | 0.356 | 0.325 | 0.387 | 0.326 | 0.373
ChaGo-K-1 | 0.788 | 0.956 | 0.938 | 0.849 | 0.862 | 0.923 | 0.895 | 0.909 | 0.729 | 0.902
COR-L 105 |  |  |  |  |  | 0.428 | 0.479 | 0.511 | 0.454 | 0.489
A-427 | 0.634 | 0.717 | 0.771 | 0.623 | 0.633 | 0.719 | 0.868 | 0.725 | 0.692 | 0.54
NCI-H2087 | 1.3 | 1.21 | 1.12 | 1.11 | 1.39 | 0.232 | 0.222 | 0.18 | 0.152 | 0.254
NCI-H358 | 0.619 | 0.449 | 0.461 | 0.519 | 0.532 | 0.12 | 0.128 | 0.139 | 0.137 | 0.157
NCI-H647 | 0.414 | 0.467 | 0.495 | 0.418 | 0.513 | 0.479 | 0.598 | 0.498 | 0.482 | 0.556
NCI-H1793 | 0.535 | 0.47 | 0.784 | 0.396 | 0.505 | 0.432 | 0.454 | 0.413 | 0.45 | 0.507

Cell Line | relative viability (Metformin + AZD7762; first compound 10 µM) | relative viability (Metformin + AZD7762; first compound 31.62 µM) | relative viability (Metformin + AZD7762; first compound 100 µM) | relative viability (Metformin + AZD7762; first compound 316.23 µM) | relative viability (Metformin + AZD7762; first compound 1000 µM) | relative viability (Metformin + Trametinib; first compound 10 µM) | relative viability (Metformin + Trametinib; first compound 31.62 µM) | relative viability (Metformin + Trametinib; first compound 100 µM) | relative viability (Metformin + Trametinib; first compound 316.23 µM) | relative viability (Metformin + Trametinib; first compound 1000 µM)
NCI-H1437 | 1.17 | 1.1 | 1.07 | 1.09 | 0.551 | 0.638 | 0.703 | 0.631 | 0.701 | 0.627
SW 1573 |  |  |  |  |  | 0.67 | 0.559 | 0.522 | 0.211 | 0.367
SW 900 | 0.666 | 0.624 |  | 0.537 | 0.761 | 1.09 | 1.07 |  | 0.825 | 1.2
LCLC-103H | 0.714 | 0.852 | 0.748 | 0.663 | 0.883 | 0.72 | 0.672 | 0.745 | 0.696 | 0.684
BEN | 1.08 | 1.12 | 0.967 | 0.957 | 0.72 | 1.25 | 1.5 | 1.43 | 1.13 | 1.21
EKVX |  | 0.69 | 0.795 | 0.609 | 0.674 |  | 0.196 | 0.354 | 0.265 | 0.334
NCI-H2347 | 0.662 | 0.892 | 0.856 | 0.771 | 0.862 | 0.291 | 0.289 | 0.26 | 0.265 | 0.258
H3255 | 0.898 | 0.853 | 0.814 | 0.845 | 0.738 | 0.587 | 0.789 | 0.648 | 0.57 | 0.508
LU99A | 0.244 | 0.249 | 0.252 | 0.223 | 0.383 | 0.524 | 0.482 | 0.544 | 0.433 | 0.448
HCC-44 |  | 1 | 1.01 | 0.994 | 1.02 |  | 1.04 | 1.12 | 0.931 | 0.989
EPLC-272H | 0.23 | 0.351 | 0.345 | 0.334 | 0.259 | 0.341 | 0.316 | 0.291 | 0.311 | 0.337
EMC-BAC-2 | 1.14 | 1.26 | 1.17 | 1.22 | 1 | 0.751 | 0.889 |  | 0.73 | 0.829
NCI-H1395 | 0.415 | 0.389 | 0.41 | 0.428 | 0.41 | 0.945 | 1.05 | 0.896 | 0.974 | 0.756
NCI-H1355 | 0.735 | 0.656 | 0.694 | 0.732 | 0.72 | 0.416 | 0.356 | 0.395 | 0.474 | 0.427
RERF-LC-KJ | 0.703 | 0.927 | 0.572 | 0.799 | 1 | 0.774 | 0.794 | 0.775 | 0.676 | 0.707
NCI-H661 |  |  |  |  |  | 0.54 | 0.643 | 0.575 | 0.527 | 0.586
SK-LU-1 |  |  |  |  |  | 0.452 | 0.453 | 0.458 | 0.382 | 0.442
